As a reminder, the IC50 is the concentration that gives 50% inhibition.

The assay concerns the target SARS-CoV-2 Mpro (Severe acute respiratory syndrome coronavirus 2, UniProt P0DTD1). Kind of assay: SARS-CoV-2 Mpro enzymatic inhibition assay (fluorescence). Type of assay: biochemical. As for the experimental part:
The hCoV Mpro are cloned, expressed in E. coli and purified by WuXi AppTec Co., Ltd. The substrate are synthesized by Genscript Biotech.
Compounds are 3 fold serially diluted for 10 doses and added to an assay plate (384w format) using ECHO, in duplicate wells. The test concentration of test compounds is defined by sponsor.
25 μL of Mpro proteins are added to the assay plates containing compounds, respectively, using Multidrop. The compounds and Mpro proteins are pre-incubated at room temperature for 30 min. Then 5 µL of Mpro substrates are added to the related assay plates, respectively.
After 60 min incubation at 30° C., the fluorescence signal (RFU) is detected using a microplate reader M2e (SpectraMax) at Ex/Em=340 nm/490 nm.
The inhibition activity is calculated using the formula below, IC50 values will be calculated using the Inhibition % data.
IC50 values of compounds are calculated with the GraphPad Prism software using the nonlinear regression model of log(inhibitor) vs. response—Variable slope (four parameters).

Like-named read-outs stand apart in the source and are kept apart here.

Turning to `CC1(C)[C@@H]2[C@@H](C(=O)N[C@H](C=O)C[C@@H]3CCNC3=O)N(C(=O)c3cc4c(C5CC5)cccc4[nH]3)C[C@@H]21` [Compound 41, (1R,2S,5S)-3-(4-Cyclopropyl-1H-indole-2-carbonyl)-6,6-dimethyl-N—((S)-1-oxo-3-((S)-2-oxopyrrolidin-3-yl)propan-2-yl)-3-azabicyclo[3.1.0]hexane-2-carboxamide], the half-maximal inhibitory concentration (IC50) turned out to be 0.0218 µM.
Same read-out and setting: then `CC1(C)[C@@H]2[C@@H](C(=O)N[C@H](C=O)C[C@@H]3CCNC3=O)N(C(=O)c3cc4ccc(Cl)cc4[nH]3)C[C@@H]21` [Compound 42, (1R,2S,5S)-3-(6-Chloro-1H-indole-2-carbonyl)-6,6-dimethyl-N—((S)-1-oxo-3-((S)-2-oxopyrrolidin-3-yl)propan-2-yl)-3-azabicyclo[3.1.0]hexane-2-carboxamide], with 0.0221 µM.
The same measure, in the same setting: then `CC1(C)[C@@H]2[C@@H](C(=O)N[C@H](C=O)C[C@@H]3CCNC3=O)N(C(=O)c3cc4cc(Cl)cc(Cl)c4[nH]3)C[C@@H]21` [Compound 44, (1R,2S,5S)-3-(5,7-Dichloro-1H-indole-2-carbonyl)-6,6-dimethyl-N—((S)-1-oxo-3-((S)-2-oxopyrrolidin-3-yl)propan-2-yl)-3-azabicyclo[3.1.0]hexane-2-carboxamide], with 0.0222 µM; and `CC1(C)[C@@H]2[C@@H](C(=O)N[C@@H](C[C@@H]3CCNC3=O)C(=O)C(=O)NC3CC3)N(C(=O)C3(c4cccc(Cl)c4)CC3)C[C@@H]21` [Compound 45, (1R,2S,5S)-3-(1-(3-Chlorophenyl)cyclopropanecarbonyl)-N—((S)-4-(cyclopropylamino)-3,4-dioxo-1-((S)-2-oxopyrrolidin-3-yl)butan-2-yl)-6,6-dimethyl-3-azabicyclo[3.1.0]hexane-2-carboxamide], with 0.0225 µM.
For `N#Cc1cccc2cc(C(=O)N3CC4(CC4)C[C@H]3C(=O)N[C@H](C=O)C[C@@H]3CCNC3=O)[nH]c12` [Compound 46, (S)-5-(7-cyano-1H-indole-2-carbonyl)-N—((S)-1-oxo-3-((S)-2-oxopyrrolidin-3-yl)propan-2-yl)-5-azaspiro[2.4]heptane-6-carboxamide], the IC50 turned out to be 0.0225 µM.
Consider `CC1(C)C[C@@H](C(=O)N[C@H](C=O)C[C@@H]2CCNC2=O)N(C(=O)c2cc3ccccc3[nH]2)C1` [Compound 57, (S)-1-(1H-Indole-2-carbonyl)-4,4-dimethyl-N—((S)-1-oxo-3-((S)-2-oxopyrrolidin-3-yl)propan-2-yl)pyrrolidine-2-carboxamid], for which the IC50 (mean, 25 nM protein, 25 μM substrate, 30 min pre-incubation, 60 min at 30° C., read-out: Mpro_SARS-CoV-2 mean IC50) worked out at 0.0258 µM.
`CC(C)Oc1cccc2[nH]c(C(=O)N3C[C@H]4[C@@H]([C@H]3C(=O)N[C@H](C=O)C[C@@H]3CCNC3=O)C4(C)C)cc12` [Compound 66, (1R,2S,5S)-3-(4-Isopropoxy-1H-indole-2-carbonyl)-6,6-dimethyl-N—((S)-1-oxo-3-((S)-2-oxopyrrolidin-3-yl)propan-2-yl)-3-azabicyclo[3.1.0]hexane-2-carboxamide] showed an IC50 of 0.0276 µM.
The compound `COc1ccc2[nH]c(C(=O)N3C[C@H]4[C@@H]([C@H]3C(=O)N[C@H](C=O)C[C@@H]3CCNC3=O)C4(C)C)cc2c1` [Compound 68, (1R,2S,5S)-3-(5-Methoxy-1H-indole-2-carbonyl)-6,6-dimethyl-N—((S)-1-oxo-3-((S)-2-oxopyrrolidin-3-yl)propan-2-yl)-3-azabicyclo[3.1.0]hexane-2-carboxamide] displayed an IC50 of 0.028 µM.
As to `CCOc1cccc2[nH]c(C(=O)N3C[C@H]4[C@@H]([C@H]3C(=O)N[C@H](C=O)C[C@@H]3CCNC3=O)C4(C)C)cc12` [Compound 70, (1R,2S,5S)-3-(4-Ethoxy-1H-indole-2-carbonyl)-6,6-dimethyl-N—((S)-1-oxo-3-((S)-2-oxopyrrolidin-3-yl)propan-2-yl)-3-azabicyclo[3.1.0]hexane-2-carboxamide], the IC50 was found to be 0.0301 µM.
The same measure, in the same setting: the figure for `O=C[C@H](C[C@@H]1CCNC1=O)NC(=O)[C@@H]1CC2(CC2)CN1C(=O)c1cc2cccc(F)c2[nH]1` [Compound 87, (S)-5-(7-Fluoro-1H-indole-2-carbonyl)-N—((S)-1-oxo-3-((S)-2-oxopyrrolidin-3-yl)propan-2-yl)-5-azaspiro[2.4]heptane-6-carboxamide] is 0.0401 µM; for `CC1(C)[C@@H]2[C@@H](C(=O)N[C@H](C=O)C[C@@H]3CCNC3=O)N(C(=O)c3cc4ccc(C(F)(F)F)cc4[nH]3)C[C@@H]21` [Compound 96] it is 0.0492 µM.
Still for that read-out and setting: then `CC1(C)[C@@H]2[C@@H](C(=O)N[C@@H](C[C@@H]3CCNC3=O)C(=O)C(=O)NC3CC3)N(C(=O)C3(c4ccccc4)CCCC3)C[C@@H]21` [Compound 99, (1R,2S,5S)—N—((S)-4-(Cyclopropylamino)-3,4-dioxo-1-((S)-2-oxopyrrolidin-3-yl)butan-2-yl)-6,6-dimethyl-3-(1-phenylcyclopentanecarbonyl)-3-azabicyclo[3.1.0]hexane-2-carboxamide], with 0.0514 µM.
Same read-out and setting: then `COc1cc2[nH]c(C(=O)N3C[C@H]4[C@@H]([C@H]3C(=O)N[C@H](C=O)C[C@@H]3CCNC3=O)C4(C)C)cc2cc1F` [Compound 101, (1R,2S,5S)-3-(5-Fluoro-6-methoxy-1H-indole-2-carbonyl)-6,6-dimethyl-N—((S)-1-oxo-3-((S)-2-oxopyrrolidin-3-yl)propan-2-yl)-3-azabicyclo[3.1.0]hexane-2-carboxamide], with 0.0563 µM; and `O=C[C@H](C[C@@H]1CCNC1=O)NC(=O)[C@@H]1C[C@H](C2CCCCC2)CN1C(=O)c1cc2ccccc2[nH]1` [Compound 103, (2S,4R)-4-cyclohexyl-1-(1H-Indole-2-carbonyl)-N—((S)-1-oxo-3-((S)-2-oxopyrrolidin-3-yl)propan-2-yl)pyrrolidine-2-carboxamide], with 0.0639 µM; and `CC1CCC(CC(=O)N2C[C@H]3[C@@H]([C@H]2C(=O)N[C@@H](C[C@@H]2CCNC2=O)C(=O)C(=O)NC2CC2)C3(C)C)CC1` (stereo partly drawn) [Compound 105, (1R,2S,5S)—N—((S)-4-(Cyclopropylamino)-3,4-dioxo-1-((S)-2-oxopyrrolidin-3-yl)butan-2-yl)-6,6-dimethyl-3-(2-(4-methylcyclohexyl)acetyl)-3-azabicyclo[3.1.0]hexane-2-carboxamide], with 0.0732 µM.
Take `CC(C)(C)[C@H](NC(=O)c1cc2ccccc2[nH]1)C(=O)N1C[C@H]2[C@@H]([C@H]1C(=O)N[C@@H](C[C@@H]1CCNC1=O)C(=O)C(N)=O)C2(C)C` [Compound 116, N—((S)-1-((1R,2S,5S)-2-(((S)-4-amino-3,4-dioxo-1-((S)-2-oxopyrrolidin-3-yl)butan-2-yl)carbamoyl)-6,6-dimethyl-3-azabicyclo[3.1.0]hexan-3-yl)-3,3-dimethyl-1-oxobutan-2-yl)-1H-indole-2-carboxamide]: the IC50 is 0.118 µM.
On the same count and under the same terms, then `CC1(C)[C@@H]2[C@@H](C(=O)N[C@H](C=O)C[C@@H]3CCNC3=O)N(C(=O)c3cc4c(F)c(Cl)ccc4[nH]3)C[C@@H]21` [Compound 117, (1R,2S,5S)-3-(5-Chloro-4-fluoro-1H-indole-2-carbonyl)-6,6-dimethyl-N—((S)-1-oxo-3-((S)-2-oxopyrrolidin-3-yl)propan-2-yl)-3-azabicyclo[3.1.0]hexane-2-carboxamide], with 0.127 µM.
With `CC1(C)[C@@H]2[C@@H](C(=O)N[C@@H](C[C@@H]3CCNC3=O)C(=O)C(=O)NC3CC3)N(C(=O)C3(c4ccccc4)CC3)C[C@@H]21` [Compound 119, (1R,2S,5S)—N—((S)-4-(cyclopropylamino)-3,4-dioxo-1-((S)-2-oxopyrrolidin-3-yl)butan-2-yl)-6,6-dimethyl-3-(1-phenylcyclopropanecarbonyl)-3-azabicyclo[3.1.0]hexane-2-carboxamide], inhibition was half-maximal at 0.143 µM (IC50).
`O=C[C@H](C[C@@H]1CCNC1=O)NC(=O)[C@@H]1C[C@@H](Oc2ccccc2)CN1C(=O)c1cc2ccccc2[nH]1` [Compound 133, (2S,4R)-1-(1H-Indole-2-carbonyl)-N—((S)-1-oxo-3-((S)-2-oxopyrrolidin-3-yl)propan-2-yl)-4-phenoxypyrrolidine-2-carboxamide] yielded an IC50 of 0.443 µM.
On the same count and under the same terms, the figure for `O=C[C@H](C[C@@H]1CCNC1=O)NC(=O)[C@@H]1C[C@H](Oc2ccccc2)CN1C(=O)c1cc2ccccc2[nH]1` [Compound 134, (2S,4S)-1-(1H-Indole-2-carbonyl)-N—((S)-1-oxo-3-((S)-2-oxopyrrolidin-3-yl)propan-2-yl)-4-phenoxypyrrolidine-2-carboxamide] is 0.451 µM.

The record behind these values is patent US20260355212A1 (priority 2022, published 2026).
